Experimental data: patent US20190298717A1 (BOARD OF REGENTS, THE UNIVERSITY OF TEXAS SYSTEM, priority 2016, published 2019)
Entries after “also recorded” stand apart in the source; their conditions may differ.

Assays:
SH-SY5Y cells [1] = experiment: Protein carbonyl assay (2,4-DNPH) in H2O2-stressed cells; type: cell-based, human; details: 100 μM H2O2 24 h, 10 and 25 μM compound
Method: (§1) To generate intracellular aldehydes, the inventors treated human neuroblastoma cell line (SH-SY5Y) with 100 μM hydrogen peroxide (H2O2) for 24 h. Carbonyl groups were quantified using 2,4-DNPH (dinitrophenylhydrazine) assay.
Protein carbonyl Assay. Protein carbonyls were measured using a commercially available kit (MAK094; Sigma-Aldrich, St. Louis, Mo.). Cells were first lysed in lysis buffer provided by the kit.
Following centrifugation, 100 μL of supernatant was added to 10 μL of 10% […] solution, was incubated at room temperature for 10 min and re-centrifuged to remove interfering nucleic acids. Carbonyl content of supernatant was determined by adding 2, 4-dinatrophenylhydrazine followed by detection of dinitrophenyl hydrazine adduct at 375 nm in a 96 well plate reader. The protein content of each sample was determined using a bicinchoninic acid (BCA) assay, Thermo Fischer, Waltham, Mass.).

SH-SY5Y cells [2] = experiment: MTT cell viability under H2O2 induced stress; type: cell-based, human; details: 100 μM H2O2 24 h; 10 and 25 μM compound; listed as hydralazine
Method: as §1
Cell Viability and Cytotoxicity Assay. Cell growth was analyzed using the MTT cell viability assay. Briefly, at the end of incubation/treatment, MTT reagent was diluted in culture medium and aliquoted into each well. After incubation for 2 hours, the medium was aspirated and DMSO was aliquoted into each well to disrupt the cells and dissolve the intracellular MTT dyes. Absorbance was read at 570 nm wavelength in a 96-well plate reader. Cell toxicity was detected using a LDH cell toxicity assay kit (Promega, Fitchburg Wis.). This is a coupled enzymatic assay that detects a visible color signal initially described by Nachlas et. al. The reagent contained excess concentrations of lactate and NAD+as substrates to drive the LDH reaction and produce NADH. In the presence of diaphorase, NADH drives the enzyme-catalyzed conversion of iodonitro-tetrazolium violet to a red formazan product. Briefly, DMEM medium was withdrawn from each well of the plate after treatment and briefly centrifuged to get rid of floating cells or cell debris. […] The absorbance was read at 490 nm in a 96-well plate reader. […]

[3] = test system: Nrf2 transcriptional activity (ARE)
Method: Trx1 reduces the cysteine residues critical for binding of Nrf2 to AREs (Hansen et al., 2004).
Nrf2 Transcriptional Activity Assay. The transcriptional activity of Nrf2 was determined using a luciferase-based transcription activation approach. A vector carrying a […] controlled luciferase gene (firefly luciferase) and a vector carrying the control luciferase (Renilla luciferase) from an ARE reporter kit (BPS Bioscience, San Diego, Calif.) was transiently co-transfected into the cells using Lipofectamine reagents (Thermo Fisher, Waltham, Mass.). […] Briefly, the cells were incubated with firefly luciferase substrate for 10 minutes prior to measurement luminescence in a 96-well luminescence plate reader. Subsequently, the Renilla luciferase was measured after the addition of Dual-Glo Stop & Glo reagent into the wells with a 10-minute incubation. The ratio of luminescence from firefly and Renilla was calculated to normalize and compare the Nrf2 transcriptional activity.

[4] = test system: GCLc, GCLm, HO-1, and NQO-1; details: SH-SY5Y, 24 h
Method: GSH is regulated by the rate-limiting enzyme GCL consisted of GCLc and GCLm subunits. […] The inventors then used extracellular lactate dehydrogenase cytotoxicity assay to measure cell survival.
(§2) Western Blot Analysis. Protein expression was determined by Western blot analysis. Equal amount of protein from each sample was run in Tris-glycine SDS PAGE gel, followed by transferring to PVDF membrane. After blocking the membrane with 5% milk for 1 hour at room temperature, the membrane was incubated further for 2 hours with antibodies specific for target proteins: Nrf2, pNrf2(S40) from Novus (Littleton, Colo.); Keap1, HO-1, NQO1, GCLc, GCLm and lamin B1 from Cell Signaling (Danvers, Mass.); GAPDH from Santa Cruz (Dallas, Tex.); β-Actin from Thermo Fisher (Waltham, Mass.). The membrane was subsequently incubated with species-specific HRP-conjugated secondary antibody followed by incubation with chemiluminescence substrate and imaging. The band intensity of each of the target proteins was quantified using ImageQuant software (GE Healthcare, Sweden). Western blot analysis on worm lystaes was done similarly. […] Equal amounts of protein were run on the gel and SKN-1 protein level was detected using anti-GFP antibody.

[5] = test system: HEK293 tau aggregate-negative and aggregate-positive cells
Method: (§3) The inventors first measured the cell proliferation to evaluate the stress caused by expression of tau fibrils in aggregate-positive and negative cells (FIG. 6A). […] The inventors also measured the concentration of superoxide ions (O2-), a detrimental byproduct of oxidative phosphorylation, as an ROS representative. […] The inventors next measured expression of Nrf2 and HO-1 in the same cells (FIG. 6C). […] Aggregate-positive and -negative KD cells were treated with 200 μM H2O2 for 24 h. Cytotoxicity was measured as release of LDH.
Measurement of Reactive Oxygen Species. Superoxide concentration was measured by dihydroethidium (DHE). Black clear bottom 96 well plates were seeded with about 5000 HEK293 tau aggregate-negative (control) and aggregate-positive model cells per well and about 20000 SH-SY5Y cells (the NRF2 knockdown of both cell lines were also seeded). […] Fluorescence was measured by Spectramax Gemini XPS plate reader (Molecular Devices, Sunnyvale, Calif.) at 370 nm excitation and 420 nm emission wavelengths. […] Equal number of animals were transferred to a black bottom 96 well plate and fluorescence was measured same as above.

Nrf2 and HO-1 = test system: Nrf2 and HO-1
Method: as §3, §2

[6] = test system: HeLa cells expressing EGFP-HD103Q; details: 48 hours
From the text: The fraction of EGFP-positive cells expressing aggregates under different conditions were plotted as odds ratios taking Ctrl value as 1. Error bars show 95% confidence interval. […] Error bars show SD.

MEF cells = details: 10 μM, 24 and 48 hours
Method: Cells were then subjected to confocal analysis and mRFP-GFP (yellow representing autophagosome) and mRFP (red puncta representing autophagolysosomes) were recorded; scale bar, 10 gtm. […] The co-localization of mRFP with GFP signal from tfLC3 puncta was measured using ImageJ software.
To further validate the present invention autophagic flux using mRFP-GFP tandem fluorescent-tagged LC3 (tfLC3) was measured. tfLC3 protein is one of the most widely used markers for the detection of autophagosomes and autophagolysosomes, two key structures in macroautophagy (8). tfLC3 was knocked-in to monitor autophagic flux in MEF cells based on different pH stabilities of GFP and mRFP (9). In autophagosome environment both mRFP and GFP tags of tfLC3 can fluoresce so autophagosome appear as yellow puncta (green GFP+red mRFP). […] Rapamycin was used as a positive control.

[7] = tau aggregate cells treated with 0, 10, 20 μM (FIG. 6C), comparator not stated

## NNc1nncc2ccccc12 [Hydralazine]
SH-SY5Y cells [1]
  protein carbonyls: significantly reduced the carbonyl level
SH-SY5Y cells [1]; listed as hydralazine
  protein carbonyls: reduced protein carbonyls significantly
SH-SY5Y cells [2]
  cell viability under H2O2 induced cell death (MTT): significantly improved; also recorded: provided protection in a dose-dependent manner
[3]; SH-SY5Y
  ARE binding elevation: 2 fold
[3]; SH-SY5Y with ARE-luciferase reporter, 24 h, both concentrations
  luciferase activity compared to untreated cells: 2.0±0.2 folds
[4]
  HO-1 upregulation: 30%
  NQO-1 upregulation: 40%
[4]; Western blotting
  expression of GCLc, GCLm, HO-1, and NQO-1: significant increase in expression
[5]; Nrf2 knockdown
  concentration of O2− ions in aggregate-positive KD cells: No significant change
[5]; aggregate-positive and -negative cells, 24 h
  concentration of superoxide: decreased in a dose-dependent manner
Nrf2 and HO-1; aggregate-positive cells, 20 μM, 1 μM rotenone, 24 h
  Nrf2 expression with hydralazine and rotenone compared to rotenone only: higher
Nrf2 and HO-1; [7]
  HO-1 expression increase: ~25%
  Nrf2 expression, higher: 1.5 fold
[6]
  EGFP-HD103Q poly Q aggregates: disappearance of higher order poly Q aggregates
MEF cells
  autophagic flux (autophagosomes, autophagolysosomes): induction of autophagic flux
